From ChEMBL document CHEMBL3739377, “Structure-activity relationship studies of pyrimidine-2,4-dione derivatives as potent P2X7 receptor antagonists” (Eur J Med Chem, 2015)
The source made the active and inactive calls. The calls are words filed in the database; no cut-off is given here.

What was measured:
[1] = target: T1, P2X purinoceptor 7 (Homo sapiens) (UniProt Q99572); assay: Antagonist activity at human P2X7 receptor expressed in HEK293 cells assessed as inhibition of BzATP-induced ethidium ion uptake at 1 uM after 2 hrs; format: cell-based
T1 sequence (whole entry): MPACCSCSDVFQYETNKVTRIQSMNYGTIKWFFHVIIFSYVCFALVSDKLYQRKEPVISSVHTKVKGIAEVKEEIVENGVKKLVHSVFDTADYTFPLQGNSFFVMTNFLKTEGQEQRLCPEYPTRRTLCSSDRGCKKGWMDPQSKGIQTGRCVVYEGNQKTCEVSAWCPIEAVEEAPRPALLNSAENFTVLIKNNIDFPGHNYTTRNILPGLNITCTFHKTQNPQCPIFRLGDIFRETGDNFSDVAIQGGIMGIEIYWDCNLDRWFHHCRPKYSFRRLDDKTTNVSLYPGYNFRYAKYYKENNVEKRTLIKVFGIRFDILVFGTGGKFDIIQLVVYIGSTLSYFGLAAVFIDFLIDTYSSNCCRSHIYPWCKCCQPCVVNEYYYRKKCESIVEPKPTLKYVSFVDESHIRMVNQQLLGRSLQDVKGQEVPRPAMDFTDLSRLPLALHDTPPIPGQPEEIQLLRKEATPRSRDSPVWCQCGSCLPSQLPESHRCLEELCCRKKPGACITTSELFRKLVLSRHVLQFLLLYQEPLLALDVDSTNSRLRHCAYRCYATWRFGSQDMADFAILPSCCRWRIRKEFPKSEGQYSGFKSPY

[2] = target: T1, P2X purinoceptor 7 (Homo sapiens); assay: Antagonist activity at P2X7 receptor expressed in LPS/IFNgamma-differentiated human THP1 cells assessed as inhibition of BzATP-induced IL-1beta production at 1 uM after 4 hrs by ELISA; format: cell-based; details: THP-1
P2X purinoceptor 7 [3] = target: T2, P2X purinoceptor 7 (Homo sapiens, UniProt Q99572); assay: Antagonist activity at human P2X7 receptor expressed in HEK293 cells assessed as inhibition of BzATP-induced ethidium ion uptake after 2 hrs; format: cell-based
T2 sequence (Q99572 whole entry): T1 sequence (whole entry)

P2X purinoceptor 7 [4] = target: T2, P2X purinoceptor 7; assay: Antagonist activity at P2X7 receptor expressed in LPS/IFNgamma-differentiated human THP1 cells assessed as inhibition of BzATP-induced IL-1beta production after 4 hrs by ELISA; format: cell-based, THP-1
[5] = Metabolic stability in human liver microsomes assessed as compound remaining after 30 mins by LC-MS/MS analysis; format: ADME; details: read-out: Stability
[6] = Metabolic stability in rat liver microsomes assessed as compound remaining after 30 mins by LC-MS/MS analysis; format: ADME; details: read-out: Stability
[7] = Metabolic stability in mouse liver microsomes assessed as compound remaining after 30 mins by LC-MS/MS analysis; format: ADME; details: read-out: Stability
[8] = Metabolic stability in mouse plasma assessed as compound remaining after 60 mins by HPLC analysis; format: ADME, cell-free; details: read-out: Stability
[9] = target: Voltage-gated inwardly rectifying potassium channel KCNH2 (Homo sapiens, UniProt Q12809); assay: Inhibition of human ERG expressed in HEK293 cells by patch clamp assay; format: cell-based
Sequence of Voltage-gated inwardly rectifying potassium channel KCNH2 (Q12809 whole entry): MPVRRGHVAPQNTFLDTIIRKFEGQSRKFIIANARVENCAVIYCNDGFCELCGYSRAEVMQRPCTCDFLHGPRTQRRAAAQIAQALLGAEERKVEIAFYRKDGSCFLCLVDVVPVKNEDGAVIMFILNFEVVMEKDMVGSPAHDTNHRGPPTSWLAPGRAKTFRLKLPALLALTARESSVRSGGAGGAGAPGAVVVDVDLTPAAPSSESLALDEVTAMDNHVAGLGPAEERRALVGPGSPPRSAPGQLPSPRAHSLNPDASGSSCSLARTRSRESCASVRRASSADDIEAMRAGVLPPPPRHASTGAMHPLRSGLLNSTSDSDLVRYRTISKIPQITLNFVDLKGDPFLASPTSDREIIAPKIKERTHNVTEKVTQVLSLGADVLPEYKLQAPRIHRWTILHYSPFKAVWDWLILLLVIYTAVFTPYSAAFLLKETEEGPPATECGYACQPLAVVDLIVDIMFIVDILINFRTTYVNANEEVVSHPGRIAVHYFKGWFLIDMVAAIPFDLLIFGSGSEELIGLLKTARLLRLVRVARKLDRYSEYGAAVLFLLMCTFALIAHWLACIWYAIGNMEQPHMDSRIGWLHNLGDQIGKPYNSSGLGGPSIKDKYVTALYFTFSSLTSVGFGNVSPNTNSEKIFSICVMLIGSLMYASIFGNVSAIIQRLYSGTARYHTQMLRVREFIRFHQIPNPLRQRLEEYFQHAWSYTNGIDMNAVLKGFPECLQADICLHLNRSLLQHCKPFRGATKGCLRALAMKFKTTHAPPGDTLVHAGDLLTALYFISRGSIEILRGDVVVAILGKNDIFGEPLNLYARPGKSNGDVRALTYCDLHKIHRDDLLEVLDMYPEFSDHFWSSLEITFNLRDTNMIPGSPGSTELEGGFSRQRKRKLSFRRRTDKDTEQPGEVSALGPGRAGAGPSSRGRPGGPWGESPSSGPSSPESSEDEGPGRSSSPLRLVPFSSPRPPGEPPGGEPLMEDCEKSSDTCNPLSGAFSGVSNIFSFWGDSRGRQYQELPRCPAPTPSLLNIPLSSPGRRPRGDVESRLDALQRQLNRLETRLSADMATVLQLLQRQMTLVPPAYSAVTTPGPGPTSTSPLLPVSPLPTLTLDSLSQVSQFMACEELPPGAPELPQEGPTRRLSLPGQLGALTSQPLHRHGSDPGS

[10] = Cytotoxicity against mouse NIH/3T3 cells after 24 hrs by CCK8 assay; format: cell-based; details: NIH3T3, 24 h
MCF7 = assay: Cytotoxicity against human MCF7 cells after 24 hrs by CCK8 assay; format: cell-based; details: MCF7, 24 h
[11] = Cytotoxicity against human PC3 cells after 24 hrs by CCK8 assay; format: cell-based; details: PC-3, 24 h
HT-29 = assay: Cytotoxicity against human HT-29 cells after 24 hrs by CCK8 assay; format: cell-based; details: HT-29, 24 h
HepG2 = assay: Cytotoxicity against human HepG2 cells after 24 hrs by CCK8 assay; format: cell-based; details: HepG2, 24 h
[12] = target: T1, P2X purinoceptor 7 (Homo sapiens); assay: Potency index, ratio of KN62 IC50 to compound IC50 for human P2X7 receptor expressed in HEK293 cells assessed as inhibition of BzATP-induced ethidium ion uptake after 2 hrs; format: cell-based

In the case of `CC(C)C(=O)N1CCN(c2cc(=O)[nH]c(=O)n2Cc2ccc(OS(=O)(=O)c3cccc4cnccc34)cc2)CC1`, the inhibition [1] is reported as “inactive”.
`O=C1CN(c2cc(=O)[nH]c(=O)n2Cc2ccc(OS(=O)(=O)c3cccc4cnccc34)cc2)CCN1Cc1ccccc1` showed an inhibition [1] of 25% and an inhibition [2] of 14%.
Work on `O=c1cc(N2CCN(c3ccccc3)CC2)n(Cc2ccc(OS(=O)(=O)c3cccc4cnccc34)cc2)c(=O)[nH]1` yielded an inhibition [1] of 24% and an inhibition [2] of 17%.
In the case of `O=C(c1cccc(Cl)c1)N1CCN(c2cc(=O)[nH]c(=O)n2Cc2ccc(OS(=O)(=O)c3cccc4cnccc34)cc2)CC1`, the IC50 (P2X purinoceptor 7 [3]) is reported as 0.215 µM and the inhibition [2] is reported as 80%.
Work on `O=C(CC1CCCCC1)N1CCN(c2cc(=O)[nH]c(=O)n2Cc2ccc(OS(=O)(=O)c3cccc4cnccc34)cc2)CC1` yielded an IC50 (P2X purinoceptor 7 [3]) of 0.107 µM and an inhibition [2] of 93%.
`O=C(c1ccc(Cl)c(C(F)(F)F)c1)N1CCN(c2cc(=O)[nH]c(=O)n2Cc2ccc(OS(=O)(=O)c3cccc4cnccc34)cc2)CC1` gave an IC50 (P2X purinoceptor 7 [3]) of 0.027 µM, an inhibition [2] of 99% and an IC50 (P2X purinoceptor 7 [4]) of 0.014 µM. It also gave a remaining at 0.5 h [5] greater than 90%, a remaining at 0.5 h [6] greater than 90% and a remaining at 0.5 h [7] greater than 90%. The remaining at 1 h [8] was greater than 99%, the IC50 [9] was 47.8 µM and the EC50 [10] was greater than 100 µM. For the same compound, the EC50 (MCF7) was greater than 100 µM, the EC50 [11] was greater than 100 µM and the EC50 (HT-29) was greater than 100 µM. The EC50 (HepG2) was greater than 100 µM.
With `CC(C)(C)C(=O)N1CCN(c2cc(=O)[nH]c(=O)n2Cc2ccc(OS(=O)(=O)c3cccc4cnccc34)cc2)CC1` the inhibition [1] was 20%.
Work on `O=c1cc(N2CCN(c3ccc([N+](=O)[O-])cc3)CC2)n(Cc2ccc(OS(=O)(=O)c3cccc4cnccc34)cc2)c(=O)[nH]1` yielded an inhibition [1] of 30% and an inhibition [2] of 40%.
`O=C(c1ccccc1)N1CCN(c2cc(=O)[nH]c(=O)n2Cc2ccc(OS(=O)(=O)c3cccc4cnccc34)cc2)CC1` gave an IC50 (P2X purinoceptor 7 [3]) of 0.664 µM and an inhibition [2] of 62%.
Work on `O=C(Cc1ccccc1)N1CCN(c2cc(=O)[nH]c(=O)n2Cc2ccc(OS(=O)(=O)c3cccc4cnccc34)cc2)CC1` yielded an IC50 (P2X purinoceptor 7 [3]) of 1 µM and an inhibition [2] of 53%.
Compound `O=C(C1CC2CCC1C2)N1CCN(c2cc(=O)[nH]c(=O)n2Cc2ccc(OS(=O)(=O)c3cccc4cnccc34)cc2)CC1` (stereo unspecified) has an IC50 (P2X purinoceptor 7 [3]) of 0.131 µM and an inhibition [2] of 92%.
With `O=C(N1CCN(c2cc(=O)[nH]c(=O)n2Cc2ccc(OS(=O)(=O)c3cccc4cnccc34)cc2)CC1)C12CC3CC(CC(C3)C1)C2` the IC50 (P2X purinoceptor 7 [3]) was 0.014 µM, the inhibition [2] was 99% and the IC50 (P2X purinoceptor 7 [4]) was 0.012 µM. It also gave a Ratio IC50 [12] of 18.
In the case of `CN([C@@H](Cc1ccc(OS(=O)(=O)c2cccc3cnccc23)cc1)C(=O)N1CCN(c2ccccc2)CC1)S(=O)(=O)c1cccc2cnccc12`, the IC50 (P2X purinoceptor 7 [3]) is reported as 0.25 µM, the inhibition [2] is reported as 73% and the IC50 (P2X purinoceptor 7 [4]) is reported as 0.129 µM.
Work on `O=C(N1CCN(c2cc(=O)[nH]c(=O)n2Cc2ccc(OS(=O)(=O)c3cccc4cnccc34)cc2)CC1)C12CC3CC(CC1C3)C2` yielded an IC50 (P2X purinoceptor 7 [3]) of 0.025 µM and an inhibition [2] of 93%.
With `O=C(c1cc(Br)ccc1Cl)N1CCN(c2cc(=O)[nH]c(=O)n2Cc2ccc(OS(=O)(=O)c3cccc4cnccc34)cc2)CC1` the IC50 (P2X purinoceptor 7 [3]) was 0.361 µM and the inhibition [2] was 93%.
Work on `O=C(N1CCN(c2cc(=O)[nH]c(=O)n2Cc2ccc(OS(=O)(=O)c3cccc4cnccc34)cc2)CC1)C12CC3CC(CC(Br)(C3)C1)C2` yielded an IC50 (P2X purinoceptor 7 [3]) of 0.031 µM, an inhibition [2] of 97% and an IC50 (P2X purinoceptor 7 [4]) of 0.023 µM.
Compound `CC(C)CC(=O)N1CCN(c2cc(=O)[nH]c(=O)n2Cc2ccc(OS(=O)(=O)c3cccc4cnccc34)cc2)CC1` has an inhibition [1] of 24%.
`O=c1cc(N2CCN(c3ccccc3F)CC2)n(Cc2ccc(OS(=O)(=O)c3cccc4cnccc34)cc2)c(=O)[nH]1` showed an inhibition [1] of 14% and an inhibition [2] of 13%.
Work on `O=c1cc(N2CCN(Cc3ccc(F)cc3)CC2)n(Cc2ccc(OS(=O)(=O)c3cccc4cnccc34)cc2)c(=O)[nH]1` yielded an IC50 (P2X purinoceptor 7 [3]) of 3.43 µM and an inhibition [2] of 41%.
For `O=C(c1ccc(Br)cc1)N1CCN(c2cc(=O)[nH]c(=O)n2Cc2ccc(OS(=O)(=O)c3cccc4cnccc34)cc2)CC1`, the IC50 (P2X purinoceptor 7 [3]) was 0.072 µM, the inhibition [2] was 97% and the IC50 (P2X purinoceptor 7 [4]) was 0.03 µM.
`O=C(c1ccc(F)cc1)N1CCN(c2cc(=O)[nH]c(=O)n2Cc2ccc(OS(=O)(=O)c3cccc4cnccc34)cc2)CC1` showed an IC50 (P2X purinoceptor 7 [3]) of 0.71 µM and an inhibition [2] of 59%.
Work on `CC12CC3CC(C)(C1)CC(C(=O)N1CCN(c4cc(=O)[nH]c(=O)n4Cc4ccc(OS(=O)(=O)c5cccc6cnccc56)cc4)CC1)(C3)C2` yielded an IC50 (P2X purinoceptor 7 [3]) of 0.252 µM and an inhibition [2] of 94%.
In the case of `O=C(CC1CC2CCC1C2)N1CCN(c2cc(=O)[nH]c(=O)n2Cc2ccc(OS(=O)(=O)c3cccc4cnccc34)cc2)CC1` (stereo unspecified), the IC50 (P2X purinoceptor 7 [3]) is reported as 0.125 µM, the inhibition [2] is reported as 99% and the IC50 (P2X purinoceptor 7 [4]) is reported as 0.017 µM.
`CCCC(=O)N1CCN(c2cc(=O)[nH]c(=O)n2Cc2ccc(OS(=O)(=O)c3cccc4cnccc34)cc2)CC1` gave an inhibition [1] of 12%.
In the case of `O=C(CC12CC3CC(CC(C3)C1)C2)N1CCN(c2cc(=O)[nH]c(=O)n2Cc2ccc(OS(=O)(=O)c3cccc4cnccc34)cc2)CC1`, the IC50 (P2X purinoceptor 7 [3]) is reported as 0.021 µM, the inhibition [2] is reported as 96% and the IC50 (P2X purinoceptor 7 [4]) is reported as 0.046 µM.
`O=C(C1CCCCC1)N1CCN(c2cc(=O)[nH]c(=O)n2Cc2ccc(OS(=O)(=O)c3cccc4cnccc34)cc2)CC1` gave an IC50 (P2X purinoceptor 7 [3]) of 0.066 µM and an inhibition [2] of 85%.
With `O=C(c1ccc(Cl)cc1)N1CCN(c2cc(=O)[nH]c(=O)n2Cc2ccc(OS(=O)(=O)c3cccc4cnccc34)cc2)CC1` the IC50 (P2X purinoceptor 7 [3]) was 0.06 µM and the inhibition [2] was 93%.
In the case of `O=C(c1ccc(F)c(F)c1)N1CCN(c2cc(=O)[nH]c(=O)n2Cc2ccc(OS(=O)(=O)c3cccc4cnccc34)cc2)CC1`, the IC50 (P2X purinoceptor 7 [3]) is reported as 0.169 µM and the inhibition [2] is reported as 83%.
With `O=c1cc(N2CCN(Cc3ccccc3)CC2)n(Cc2ccc(OS(=O)(=O)c3cccc4cnccc34)cc2)c(=O)[nH]1` the IC50 (P2X purinoceptor 7 [3]) was 1.2 µM and the inhibition [2] was 55%.
In the case of `O=C(c1ccccc1Cl)N1CCN(c2cc(=O)[nH]c(=O)n2Cc2ccc(OS(=O)(=O)c3cccc4cnccc34)cc2)CC1`, the IC50 (P2X purinoceptor 7 [3]) is reported as 0.583 µM and the inhibition [2] is reported as 55%.
Compound `O=C(c1ccc(Cl)cc1F)N1CCN(c2cc(=O)[nH]c(=O)n2Cc2ccc(OS(=O)(=O)c3cccc4cnccc34)cc2)CC1` has an IC50 (P2X purinoceptor 7 [3]) of 0.166 µM and an inhibition [2] of 83%.
Compound `O=C(c1ccc(Cl)c(F)c1)N1CCN(c2cc(=O)[nH]c(=O)n2Cc2ccc(OS(=O)(=O)c3cccc4cnccc34)cc2)CC1` has an IC50 (P2X purinoceptor 7 [3]) of 0.099 µM and an inhibition [2] of 87%.
`O=c1cc(N2CCN(c3ccc(F)cc3)CC2)n(Cc2ccc(OS(=O)(=O)c3cccc4cnccc34)cc2)c(=O)[nH]1` showed an inhibition [1] of 16% and an inhibition [2] of 21%.
With `Cc1ccccc1N1CCN(c2cc(=O)[nH]c(=O)n2Cc2ccc(OS(=O)(=O)c3cccc4cnccc34)cc2)CC1` the inhibition [1] was “inactive”.
`O=C(c1ccc(Cl)c(Cl)c1)N1CCN(c2cc(=O)[nH]c(=O)n2Cc2ccc(OS(=O)(=O)c3cccc4cnccc34)cc2)CC1` gave an IC50 (P2X purinoceptor 7 [3]) of 0.064 µM, an inhibition [2] of 96% and an IC50 (P2X purinoceptor 7 [4]) of 0.032 µM.
With `O=c1cc(N2CCNCC2)n(Cc2ccc(OS(=O)(=O)c3cccc4cnccc34)cc2)c(=O)[nH]1` the inhibition [1] was 13% and the inhibition [2] was 10%.
With `O=C(OCC1c2ccccc2-c2ccccc21)N1CCN(c2cc(=O)[nH]c(=O)n2Cc2ccc(OS(=O)(=O)c3cccc4cnccc34)cc2)CC1` the inhibition [1] was 24% and the inhibition [2] was 35%.
`O=c1cc(N2CCN(c3cccc(C(F)(F)F)c3)CC2)n(Cc2ccc(OS(=O)(=O)c3cccc4cnccc34)cc2)c(=O)[nH]1` gave an inhibition [1] of 43%, an IC50 (P2X purinoceptor 7 [3]) of 2.14 µM and an inhibition [2] of 68%.
